Data on 13 compounds can be found in PubChem BioAssay (NCI).

Some test systems named below: HOP-62 NSCLC; LOX IMVI melanoma; RXF 393 renal; OVCAR-4 ovarian; NCI-H522 lung; TK-10 renal; SF-539 CNS; NCI/ADR-RES ovarian; A549 NSCLC; 786-0 renal.
Common to all, as to assay: NCI anticancer screen, dose series, 48 h

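Growth conditions: 96-well plates. Treatment: test compound, 48 hours, 5 concentrations. Analysis: linear interpolation between bracketing concentrations; unreached endpoints set to highest concentration. Here, GI50 denotes the concentration required for 50% inhibition of growth. Definition used: TGI = concentration required for complete inhibition of growth.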

Regarding `COC(=O)C(/C(=N/NC(N)=O)C(=O)Nc1ccc(C)cc1)c1nc2ccc([N+](=O)[O-])cc2[nH]c1=O` (stereo not drawn), the TGI in the assay on HOP-62 NSCLC, in the assay with LOX IMVI melanoma, in the assay on RXF 393 renal, in the assay with OVCAR-4 ovarian, with NCI-H522 lung and in the assay on TK-10 renal was over 100 µM in each case. Moreover, the TGI in the assay on SF-539 CNS, in the assay with NCI/ADR-RES ovarian, in the assay on A549 NSCLC and in the assay with 786-0 renal was over 100 µM throughout.
In the case of `O=C(c1ccco1)c1nc2ccc(C(F)(F)F)cc2[n+]([O-])c1C(F)(F)F`, the GI50 in the assay with HOP-62 NSCLC was 33.6 µM; with LOX IMVI melanoma, over 100000 nM; in the assay on RXF 393 renal, 22200 nM; with OVCAR-4 ovarian it was 10.8 µM; in the assay on NCI-H522 lung, over 100000 nM; in the assay with TK-10 renal, 28.8 µM. The GI50 was 54 µM with SF-539 CNS, over 100 µM with NCI/ADR-RES ovarian, 33700 nM with A549 NSCLC and over 100 µM with 786-0 renal. Moreover, the TGI in the assay with HOP-62 NSCLC is over 100 µM; with LOX IMVI melanoma, over 100 µM; in the assay on RXF 393 renal, 80 µM; in the assay on OVCAR-4 ovarian, 48.3 µM; in the assay with NCI-H522 lung it was over 100 µM; in the assay on TK-10 renal, over 100 µM. Besides, the TGI in the assay with SF-539 CNS, with NCI/ADR-RES ovarian, in the assay with A549 NSCLC and in the assay with 786-0 renal was over 100 µM in each case.
For the compound `COc1cccc(/C=N/NC(=O)c2ccccc2Nc2ccnc(C(F)(F)F)c2)c1O`, the GI50 was 0.431 µM in the assay with HOP-62 NSCLC; 264 nM with LOX IMVI melanoma; 728 nM with RXF 393 renal; 0.0822 µM in the assay with OVCAR-4 ovarian; 521 nM in the assay on NCI-H522 lung; 0.392 µM with TK-10 renal. The GI50 was 0.583 µM with SF-539 CNS, 0.512 µM in the assay on NCI/ADR-RES ovarian, 870 nM with A549 NSCLC and 0.552 µM with 786-0 renal. Also, the TGI was over 53.6 µM in the assay with HOP-62 NSCLC; over 100 µM with LOX IMVI melanoma; 28 µM in the assay with RXF 393 renal; 46.1 µM with NCI-H522 lung; over 92.6 µM with TK-10 renal; 11.3 µM in the assay on SF-539 CNS. Besides, the TGI with NCI/ADR-RES ovarian is 27.9 µM; in the assay on A549 NSCLC, over 34.1 µM; in the assay with 786-0 renal it was over 37.5 µM.
For the compound `Cc1c(C(=O)N/N=C/c2ccc(Cl)cc2)nnn1-c1ccnc2c(C(F)(F)F)cccc12`, the GI50 in the assay on HOP-62 NSCLC is 5.01 µM; in the assay on LOX IMVI melanoma, 1690 nM; with RXF 393 renal, 3060 nM; in the assay with OVCAR-4 ovarian, 2.9 µM; in the assay on NCI-H522 lung, 11800 nM; in the assay with TK-10 renal, 2.6 µM. Moreover, the GI50 is 12.6 µM in the assay on SF-539 CNS, 3.86 µM with NCI/ADR-RES ovarian, 2100 nM in the assay on A549 NSCLC and 18.5 µM with 786-0 renal. The TGI stood at 17.3 µM with HOP-62 NSCLC; 3.18 µM in the assay on LOX IMVI melanoma; 11.2 µM in the assay on RXF 393 renal; 6.08 µM with OVCAR-4 ovarian; 35.2 µM with NCI-H522 lung; 8.93 µM in the assay with TK-10 renal. Moreover, the TGI with SF-539 CNS was 25.8 µM; in the assay with NCI/ADR-RES ovarian, 13.8 µM; in the assay with A549 NSCLC it was 4.63 µM; in the assay with 786-0 renal, 37.8 µM.
Consider `O=C1NNC=Nc2ccc(cc2)S(=O)(=O)c2ccc(cc2)N=CNNC1=O`, for which the TGI in the assay with HOP-62 NSCLC, in the assay with LOX IMVI melanoma, with RXF 393 renal, with OVCAR-4 ovarian, in the assay on NCI-H522 lung and with TK-10 renal was over 100 µM each time. Further, the TGI in the assay on SF-539 CNS, in the assay with NCI/ADR-RES ovarian, in the assay with A549 NSCLC and in the assay with 786-0 renal was over 100 µM in each case.
`Cn1cc(-c2cnc3ccc(NC(=O)Nc4ccc(F)c(Br)c4)cc3n2)cn1`: the GI50 was 1.8 µM in the assay on HOP-62 NSCLC; 1510 nM with LOX IMVI melanoma; 1730 nM in the assay on RXF 393 renal; 1.53 µM in the assay on OVCAR-4 ovarian; 1710 nM with NCI-H522 lung; 2.09 µM in the assay on TK-10 renal. Also, the GI50 in the assay on SF-539 CNS was 1.75 µM; with NCI/ADR-RES ovarian, 2.21 µM; in the assay on A549 NSCLC, 1770 nM; with 786-0 renal it was 1.98 µM. Moreover, the TGI with HOP-62 NSCLC is 3.84 µM; in the assay on LOX IMVI melanoma, 2.9 µM; in the assay on RXF 393 renal, 4.67 µM; in the assay on OVCAR-4 ovarian, 5.55 µM; with NCI-H522 lung, 4.75 µM; in the assay on TK-10 renal it was 5.5 µM. Further, the TGI with SF-539 CNS stood at 3.4 µM; in the assay with NCI/ADR-RES ovarian, 5.41 µM; with A549 NSCLC it was 4.85 µM; in the assay with 786-0 renal it was 5.9 µM.
Consider `O=C(Nc1ccc(N2CCNCC2)cc1)c1[nH]ncc1Nc1cc(Oc2ccccc2)ncn1`, for which the GI50 in the assay on HOP-62 NSCLC is 2.24 µM; with LOX IMVI melanoma it was 220 nM; with RXF 393 renal, 1750 nM; in the assay on OVCAR-4 ovarian, 2.59 µM; in the assay with NCI-H522 lung, 2140 nM; in the assay with TK-10 renal, 2.07 µM. The GI50 was 1.69 µM in the assay on SF-539 CNS, 12 µM in the assay on NCI/ADR-RES ovarian, 1070 nM in the assay with A549 NSCLC and 1.84 µM in the assay on 786-0 renal. The TGI was determined as 6.05 µM in the assay with HOP-62 NSCLC; 0.54 µM with LOX IMVI melanoma; 3.33 µM in the assay on RXF 393 renal; 8.19 µM in the assay with NCI-H522 lung; 4.67 µM with TK-10 renal; 3.35 µM with SF-539 CNS. For the same compound, the TGI with NCI/ADR-RES ovarian came to 39.2 µM; in the assay on A549 NSCLC, 2.95 µM; in the assay on 786-0 renal it was 3.33 µM.
With `O=C1CNCCCN2CCN(CCCNCC(=O)Nc3ccc(cc3)S(=O)(=O)c3ccc(cc3)NC(=O)CNCCCN3CCN(CCCNCC(=O)Nc4ccc(cc4)S(=O)(=O)c4ccc(cc4)N1)CC3)CC2`, the TGI in the assay on HOP-62 NSCLC was over 63.7 µM; with LOX IMVI melanoma it was over 100 µM; with RXF 393 renal, over 70.2 µM; in the assay on OVCAR-4 ovarian, 97.7 µM; with NCI-H522 lung it was 53.8 µM; in the assay with TK-10 renal, 56.5 µM. Moreover, the TGI with SF-539 CNS was 44.6 µM; with NCI/ADR-RES ovarian it was over 100 µM; in the assay with A549 NSCLC, over 100 µM; with 786-0 renal it was 38.9 µM.
Consider `Cc1cc(I)cc(CNCCCN2CCSCC2)c1O`, for which the GI50 with HOP-62 NSCLC is 14.3 µM; with LOX IMVI melanoma it was 14600 nM; in the assay on RXF 393 renal it was 11100 nM; in the assay with OVCAR-4 ovarian, 20.3 µM; with NCI-H522 lung it was 18400 nM; with TK-10 renal, 14.2 µM. The GI50 in the assay on SF-539 CNS is 16.8 µM; with NCI/ADR-RES ovarian, 18.1 µM; in the assay on A549 NSCLC, 18700 nM; with 786-0 renal it was 13 µM. Moreover, the TGI with HOP-62 NSCLC is 28.3 µM; in the assay on LOX IMVI melanoma it was 28.4 µM; in the assay on RXF 393 renal, 24.1 µM; in the assay with OVCAR-4 ovarian, 46.7 µM; in the assay on NCI-H522 lung, 36.5 µM; with TK-10 renal, 29.3 µM. Besides, the TGI in the assay on SF-539 CNS turned out to be 30.8 µM; in the assay with NCI/ADR-RES ovarian, 36.6 µM; with A549 NSCLC it was 39.2 µM; in the assay with 786-0 renal, 25.8 µM.
Turning to `O=NN(Cc1ccc(Cl)cc1)C(C(=O)O)c1ccccc1` (stereo not drawn), the TGI in the assay with HOP-62 NSCLC, with LOX IMVI melanoma, in the assay with RXF 393 renal, in the assay on OVCAR-4 ovarian, in the assay with NCI-H522 lung and with TK-10 renal was over 100 µM in each case. Besides, the TGI with SF-539 CNS, in the assay with NCI/ADR-RES ovarian, in the assay with A549 NSCLC and in the assay with 786-0 renal was over 100 µM throughout.
Turning to `Cc1cc(N(CCOS(C)(=O)=O)CCOS(C)(=O)=O)ccc1C=Nc1ccc(-c2nc(Cc3ccccc3)sc2C)cc1`, the TGI was 20.8 µM in the assay on HOP-62 NSCLC; 20.2 µM with LOX IMVI melanoma; 4.92 µM in the assay with RXF 393 renal; 36.8 µM with OVCAR-4 ovarian; 0.648 µM in the assay with NCI-H522 lung; 33.9 µM in the assay on TK-10 renal. The TGI amounted to 14.8 µM with SF-539 CNS, 47.8 µM in the assay on NCI/ADR-RES ovarian, 21.6 µM in the assay on A549 NSCLC and 15.1 µM with 786-0 renal.
On to `CC1=C(C(=O)Nc2ccc3[nH]ncc3c2)C(c2ccc3ccccc3c2)CC(=O)N1` (stereo not drawn), for which the GI50 in the assay on HOP-62 NSCLC is 6.46 µM; in the assay on LOX IMVI melanoma, 13200 nM; in the assay on RXF 393 renal it was 4110 nM; in the assay on OVCAR-4 ovarian, 13.4 µM; in the assay on NCI-H522 lung, 13800 nM; in the assay with TK-10 renal, 8.73 µM. Also, the GI50 with SF-539 CNS was 9.18 µM; in the assay with NCI/ADR-RES ovarian, over 25 µM; in the assay with A549 NSCLC, over 25000 nM; with 786-0 renal it was 15.1 µM. For the same compound, the TGI in the assay on HOP-62 NSCLC was over 25 µM; in the assay on LOX IMVI melanoma, over 25 µM; with RXF 393 renal, over 23.8 µM; in the assay with OVCAR-4 ovarian it was over 25 µM; in the assay with NCI-H522 lung, over 25 µM; in the assay on TK-10 renal, over 25 µM. For the same compound, the TGI in the assay on SF-539 CNS, in the assay with NCI/ADR-RES ovarian, with A549 NSCLC and in the assay with 786-0 renal was over 25 µM in each case.
As to `COc1cc(OC)cc(-c2ccc(-c3ccc(C(=N)N)o3)o2)c1`, the GI50 in the assay on HOP-62 NSCLC is 5.65 µM; in the assay on LOX IMVI melanoma, 1790 nM; in the assay on RXF 393 renal, 1930 nM; in the assay with OVCAR-4 ovarian it was 3.51 µM; with NCI-H522 lung it was 2300 nM; in the assay on TK-10 renal, 13.4 µM. The GI50 is 1.83 µM in the assay with SF-539 CNS, 8.26 µM in the assay with NCI/ADR-RES ovarian, 3780 nM with A549 NSCLC and 4.15 µM in the assay on 786-0 renal. In addition, the TGI with HOP-62 NSCLC was determined as 19.1 µM; in the assay with LOX IMVI melanoma, 3.29 µM; in the assay with RXF 393 renal, 5.24 µM; with OVCAR-4 ovarian, 14.8 µM; in the assay on NCI-H522 lung, 7.4 µM; with TK-10 renal, 26.5 µM. Also, the TGI is 3.44 µM in the assay on SF-539 CNS, 22.4 µM in the assay with NCI/ADR-RES ovarian, 13.3 µM with A549 NSCLC and 15.6 µM with 786-0 renal.
